Reference: patent US20260166122A1, “USE OF MICROPEPTIDE MIAC” (NANJING ANJI BIOTECHNOLOGY CO., LTD, priority 2023, published 2026)
Read-outs that look alike come from different tables or passages of the source. Marks after values point to notes of the source that are not given here. Ends that are not written are not given here.

How the values were obtained:
Type in all cases: cell-based
Settings in all cases: 72 h
[1] = test system: human diffuse large B-cell lymphoma cells U2932
Method: (§1) Human pancreatic cancer, hepatocellular carcinoma, colorectal cancer, ovarian cancer, cervical cancer, bladder cancer, melanoma, glioblastoma, neuroblastoma, glioma, osteosarcoma, myeloma, lymphoma, hematologic malignancies, and cholangiocarcinoma cells were cultured in an incubator at 37° C. with 5% CO2 until the density reached 90%, then digested and collected with trypsin, resuspended in a culture medium, and counted under a microscope; the cell concentration was adjusted to about 1.0×10^5 cells/mL; and the cell suspension was inoculated into a 96-well plate, with 100 μL per well, and incubated overnight in an incubator at 37° C. with 5% CO2. After the cells were completely attached to the wall, 100 μL of micropeptides MIAC with concentrations of 50 μM, 100 μM and 200 μM were added to form an administration group; and a culture medium without any medicament was used as a negative control group. After continuing incubation for 72 h, 100 μL of CCK8 was added to each well of the 96-well plate for dissolving. The absorbance OD was measured at a detection wavelength of 450 nm with a microplate reader, and the proliferation inhibition (PI) was calculated using the formula of PI (%)=1-administration group/negative control group. The experiment was repeated 3 times independently, the results were expressed as Mean±SD, and a statistical T test was performed, where *P<0.05 indicated a significant difference and **P<0.01 indicated an extremely significant difference.

[2] = test system: human lymphoma cells Raji
Method: as §1

[3] = test system: human histiocytic lymphoma cells U937
Method: as §1

[4] = test system: human pancreatic cancer cells PANC-1
Method: as §1

[5] = test system: human colon cancer cells SW480
Method: as §1

[6] = test system: human hepatocellular carcinoma cells HepG2
Method: as §1

[7] = test system: human malignant melanoma cells SK-mel-2
Method: as §1

[8] = test system: human bladder transitional cell carcinoma cells T24
Method: as §1

[9] = test system: human glioma cells SHG-44
Method: as §1

[10] = test system: human diffuse large B-cell lymphoma cells OCI-LY10
Method: as §1

[11] = test system: human cerebral astrocytic glioblastoma cells U87-MG
Method: as §1

[12] = test system: human mantle cell lymphoma cells JeKo-1
Method: as §1

[13] = test system: human monocytic leukemia cells Thp-1
Method: as §1

[14] = test system: human osteosarcoma cells MG-63
Method: as §1

[15] = test system: peripheral blood B lymphocytes RPMI-8226 in human multiple myeloma
Method: as §1

[16] = test system: human cholangiocarcinoma cells QBC939
Method: as §1

[17] = test system: human colon cancer cells LOVO
Method: as §1

[18] = test system: human cervical cancer cells Hela
Method: as §1

[19] = test system: human colon cancer cells HCT-116
Method: as §1

[20] = test system: human bladder cancer cells EJ
Method: as §1

[21] = test system: human cervical cancer cells SIHA
Method: as §1

[22] = test system: human hepatocellular carcinoma cells SMMC-7721
Method: as §1

Q: Which OD ([1]; U2932, 50 μM) does the source give for “MERAGVPGFSPRRSSVEAKMQSTSCSVRKSSTVTAWPAVVLLLSWGQRRGG [MIAC, micropeptide inhibiting actin cytoskeleton]” here?
A: 0.426 ± 0.019**

Q: What about the OD ([1]; U2932, 100 μM) of the same sequence?
A: 0.275 ± 0.038**

Q: And the OD ([1]; U2932, 200 μM)?
A: 0.167 ± 0.025**

Q: And the OD ([2]; 50 μM)?
A: 0.964 ± 0.037

Q: And the OD ([2]; 100 μM)?
A: 0.687 ± 0.019**

Q: What about the OD ([2]; 200 μM) of the same sequence?
A: 0.421 ± 0.029**

Q: And the OD ([3]; U937, 50 μM)?
A: 1.069 ± 0.028

Q: And the OD ([3]; U937, 100 μM)?
A: 0.821 ± 0.047**

Q: What about the OD ([3]; U937, 200 μM) of the same sequence?
A: 0.684 ± 0.046**

Q: What about the OD ([4]; PANC-1, 50 μM) of the same sequence?
A: 1.027 ± 0.073

Q: What about the OD ([4]; PANC-1, 100 μM) of the same sequence?
A: 0.708 ± 0.043**

Q: And the OD ([4]; PANC-1, 200 μM)?
A: 0.427 ± 0.02**

Q: And the OD ([5]; SW480, 50 μM)?
A: 0.640 ± 0.032**

Q: And the OD ([5]; SW480, 100 μM)?
A: 0.283 ± 0.007**

Q: What about the OD ([5]; SW480, 200 μM) of the same sequence?
A: 0.147 ± 0.016**

Q: And the OD ([6]; HepG2, 50 μM)?
A: 0.575 ± 0.047**

Q: What about the OD ([6]; HepG2, 100 μM) of the same sequence?
A: 0.267 ± 0.022**

Q: What about the OD ([6]; HepG2, 200 μM) of the same sequence?
A: 0.169 ± 0.015**

Q: What about the OD ([7]; SK-mel-2, 50 μM) of the same sequence?
A: 1.302 ± 0.043**

Q: And the OD ([7]; SK-mel-2, 100 μM)?
A: 0.822 ± 0.060**

Q: And the OD ([7]; SK-mel-2, 200 μM)?
A: 0.570 ± 0.011**

Q: And the OD ([8]; T24, 50 μM)?
A: 1.125 ± 0.010

Q: What about the OD ([8]; T24, 100 μM) of the same sequence?
A: 0.730 ± 0.085**

Q: And the OD ([8]; T24, 200 μM)?
A: 0.364 ± 0.043**

Q: What about the OD ([9]; SHG-44, 50 μM) of the same sequence?
A: 1.201 ± 0.026

Q: And the OD ([9]; SHG-44, 100 μM)?
A: 0.838 ± 0.067**

Q: What about the OD ([9]; SHG-44, 200 μM) of the same sequence?
A: 0.393 ± 0.021**

Q: What about the OD ([10]; OCI-LY10, 50 μM) of the same sequence?
A: 0.719 ± 0.028**

Q: And the OD ([10]; OCI-LY10, 100 μM)?
A: 0.598 ± 0.033**

Q: And the OD ([10]; OCI-LY10, 200 μM)?
A: 0.376 ± 0.019**

Q: And the OD ([11]; 50 μM)?
A: 0.951 ± 0.019

Q: And the OD ([11]; 100 μM)?
A: 0.785 ± 0.029**

Q: And the OD ([11]; 200 μM)?
A: 0.656 ± 0.030**

Q: What about the OD ([12]; JeKo-1, 50 μM) of the same sequence?
A: 1.174 ± 0.027

Q: And the OD ([12]; JeKo-1, 100 μM)?
A: 0.820 ± 0.078**

Q: What about the OD ([12]; JeKo-1, 200 μM) of the same sequence?
A: 0.496 ± 0.052**

Q: And the OD ([13]; Thp-1, 50 μM)?
A: 1.265 ± 0.059

Q: And the OD ([13]; Thp-1, 100 μM)?
A: 0.841 ± 0.058**

Q: What about the OD ([13]; Thp-1, 200 μM) of the same sequence?
A: 0.681 ± 0.045**

Q: And the OD ([14]; MG-63, 50 μM)?
A: 1.049 ± 0.011**

Q: And the OD ([14]; MG-63, 100 μM)?
A: 0.691 ± 0.033**

Q: And the OD ([14]; MG-63, 200 μM)?
A: 0.365 ± 0.009**

Q: And the OD ([15]; RPMI-8226, 50 μM)?
A: 2.008 ± 0.023

Q: And the OD ([15]; RPMI-8226, 100 μM)?
A: 1.001 ± 0.027**

Q: What about the OD ([15]; RPMI-8226, 200 μM) of the same sequence?
A: 0.522 ± 0.028**

Q: What about the OD ([16]; QBC939, 50 μM) of the same sequence?
A: 1.13 ± 0.053

Q: And the OD ([16]; QBC939, 100 μM)?
A: 0.757 ± 0.028**

Q: What about the OD ([16]; QBC939, 200 μM) of the same sequence?
A: 0.468 ± 0.045**

Q: What about the OD ([17]; 50 μM) of the same sequence?
A: 1.148 ± 0.008**

Q: And the OD ([17]; 100 μM)?
A: 0.970 ± 0.021**

Q: And the OD ([17]; 200 μM)?
A: 0.624 ± 0.026**

Q: What about the OD ([18]; 50 μM) of the same sequence?
A: 0.954 ± 0.041**

Q: What about the OD ([18]; 100 μM) of the same sequence?
A: 0.801 ± 0.039**

Q: And the OD ([18]; 200 μM)?
A: 0.532 ± 0.066**

Q: And the OD ([19]; HCT-116, 50 μM)?
A: 1.253 ± 0.019**

Q: What about the OD ([19]; HCT-116, 100 μM) of the same sequence?
A: 0.976 ± 0.038**

Q: And the OD ([19]; HCT-116, 200 μM)?
A: 0.688 ± 0.047**

Q: And the OD ([20]; 50 μM)?
A: 1.126 ± 0.017

Q: What about the OD ([20]; 100 μM) of the same sequence?
A: 0.891 ± 0.009**

Q: And the OD ([20]; 200 μM)?
A: 0.628 ± 0.045**

Q: What about the OD ([21]; 50 μM) of the same sequence?
A: 0.844 ± 0.099**

Q: What about the OD ([21]; 100 μM) of the same sequence?
A: 0.755 ± 0.103**

Q: What about the OD ([21]; 200 μM) of the same sequence?
A: 0.261 ± 0.052**

Q: What about the OD ([22]; SMMC-7721, 50 μM) of the same sequence?
A: 1.292 ± 0.012

Q: What about the OD ([22]; SMMC-7721, 100 μM) of the same sequence?
A: 1.032 ± 0.011**

Q: And the OD ([22]; SMMC-7721, 200 μM)?
A: 0.674 ± 0.033**
